Assay results as given in ChEMBL document CHEMBL4831516, “Development of Membrane-Active Honokiol/Magnolol Amphiphiles as Potent Antibacterial Agents against Methicillin-Resistant Staphylococcus aureus (MRSA)” (J Med Chem, 2021).

system: Staphylococcus aureus; test: Antibacterial activity against methicillin-resistant Staphylococcus aureus clinical isolate M-11 assessed as inhibition of visible growth incubated for 16 to 18 hrs by CLSI method; type: functional; conditions: time 16-18 hrs, read-out: MIC100

Row | Compound | MIC [µg/mL]
1 | C=CCc1ccc(OCC[N+](C)(C)CC(=O)NCC)c(-c2ccc(OCC[N+](C)(C)CC(=O)NCC)c(CC=C)c2)c1.[Br-].[Br-] | 8
2 | C=CCc1ccc(OCCCC[N+](C)(C)CC(=O)NCCCCCC)c(-c2ccc(OCCCC[N+](C)(C)CC(=O)NCCCCCC)c(CC=C)c2)c1.[Br-].[Br-] | 2

system: Staphylococcus aureus; test: Antibacterial activity against methicillin-resistant Staphylococcus aureus clinical isolate M-16 assessed as inhibition of visible growth incubated for 16 to 18 hrs by CLSI method; type: functional; conditions: time 16-18 hrs, read-out: MIC100

Row | Compound | MIC [µg/mL]
3 | C=CCc1ccc(OCC[N+](C)(C)CC(=O)NCC)c(-c2ccc(OCC[N+](C)(C)CC(=O)NCC)c(CC=C)c2)c1.[Br-].[Br-] | 4
4 | C=CCc1ccc(OCCCC[N+](C)(C)CC(=O)NCCCCCC)c(-c2ccc(OCCCC[N+](C)(C)CC(=O)NCCCCCC)c(CC=C)c2)c1.[Br-].[Br-] | 8

system: Staphylococcus aureus; test: Antibacterial activity against methicillin-resistant Staphylococcus aureus clinical isolate M-18 assessed as inhibition of visible growth incubated for 16 to 18 hrs by CLSI method; type: functional; conditions: time 16-18 hrs, read-out: MIC100

Row | Compound | MIC [µg/mL]
5 | C=CCc1ccc(OCC[N+](C)(C)CC(=O)NCC)c(-c2ccc(OCC[N+](C)(C)CC(=O)NCC)c(CC=C)c2)c1.[Br-].[Br-] | 4
6 | C=CCc1ccc(OCCCC[N+](C)(C)CC(=O)NCCCCCC)c(-c2ccc(OCCCC[N+](C)(C)CC(=O)NCCCCCC)c(CC=C)c2)c1.[Br-].[Br-] | 4

system: Staphylococcus aureus; test: Antibacterial activity against methicillin-resistant Staphylococcus aureus clinical isolate M-19 assessed as inhibition of visible growth incubated for 16 to 18 hrs by CLSI method; type: functional; conditions: time 16-18 hrs, read-out: MIC100

Row | Compound | MIC [µg/mL]
7 | C=CCc1ccc(OCC[N+](C)(C)CC(=O)NCC)c(-c2ccc(OCC[N+](C)(C)CC(=O)NCC)c(CC=C)c2)c1.[Br-].[Br-] | 4
8 | C=CCc1ccc(OCCCC[N+](C)(C)CC(=O)NCCCCCC)c(-c2ccc(OCCCC[N+](C)(C)CC(=O)NCCCCCC)c(CC=C)c2)c1.[Br-].[Br-] | 4

system: Salmonella enterica; test: Antibacterial activity against Salmonella enterica 349812 assessed as inhibition of visible growth incubated for 16 to 18 hrs by CLSI method; type: functional; conditions: time 16-18 hrs, read-out: MIC100

Row | Compound | MIC [µg/mL]
9 | C=CCc1ccc(OCC[N+](C)(C)CC(=O)NCC)c(-c2ccc(OCC[N+](C)(C)CC(=O)NCC)c(CC=C)c2)c1.[Br-].[Br-] | 32
10 | C=CCc1ccc(OCCCC[N+](C)(C)CC(=O)NCCCCCC)c(-c2ccc(OCCCC[N+](C)(C)CC(=O)NCCCCCC)c(CC=C)c2)c1.[Br-].[Br-] | 16

system: Salmonella enterica; test: Antibacterial activity against Salmonella enterica 8389 assessed as inhibition of visible growth incubated for 16 to 18 hrs by CLSI method; type: functional; conditions: time 16-18 hrs, read-out: MIC100

Row | Compound | MIC [µg/mL]
11 | C=CCc1ccc(OCC[N+](C)(C)CC(=O)NCC)c(-c2ccc(OCC[N+](C)(C)CC(=O)NCC)c(CC=C)c2)c1.[Br-].[Br-] | 64
12 | C=CCc1ccc(OCCCC[N+](C)(C)CC(=O)NCCCCCC)c(-c2ccc(OCCCC[N+](C)(C)CC(=O)NCCCCCC)c(CC=C)c2)c1.[Br-].[Br-] | 8

system: Staphylococcus aureus; test: Antibacterial activity against methicillin-resistant Staphylococcus aureus clinical isolate M-17 assessed as inhibition of visible growth incubated for 16 to 18 hrs by CLSI method; type: functional; conditions: time 16-18 hrs, read-out: MIC100

Row | Compound | MIC [µg/mL]
13 | C=CCc1ccc(OCC[N+](C)(C)CC(=O)NCC)c(-c2ccc(OCC[N+](C)(C)CC(=O)NCC)c(CC=C)c2)c1.[Br-].[Br-] | 4
14 | C=CCc1ccc(OCCCC[N+](C)(C)CC(=O)NCCCCCC)c(-c2ccc(OCCCC[N+](C)(C)CC(=O)NCCCCCC)c(CC=C)c2)c1.[Br-].[Br-] | 4

system: not listed separately; test: Hemolytic activity in sheep RBC assessed as hemolysis incubated for 1 hr; type: ADME, cell-based, Ovis aries, Erythrocyte; conditions: sheep red blood cells (erythrocytes)

Row | Compound | HC50 at 1 h [µg/mL]
15 | C=CCc1ccc(OCC[N+](C)(C)CC(=O)NCC)c(-c2ccc(OCC[N+](C)(C)CC(=O)NCC)c(CC=C)c2)c1.[Br-].[Br-] | 639
16 | C=CCc1ccc(OCCCC[N+](C)(C)CC(=O)NCCCCCC)c(-c2ccc(OCCCC[N+](C)(C)CC(=O)NCCCCCC)c(CC=C)c2)c1.[Br-].[Br-] | 573

system: Micrococcus luteus; test: Antibacterial activity against Micrococcus luteus assessed as inhibition of visible growth incubated for 16 to 18 hrs by CLSI method; type: functional; conditions: time 16-18 hrs, read-out: MIC100

Row | Compound | MIC [µg/mL]
17 | C=CCc1ccc(OCC[N+](C)(C)CC(=O)NCC)c(-c2ccc(OCC[N+](C)(C)CC(=O)NCC)c(CC=C)c2)c1.[Br-].[Br-] | 4
18 | C=CCc1ccc(OCCCC[N+](C)(C)CC(=O)NCCCCCC)c(-c2ccc(OCCCC[N+](C)(C)CC(=O)NCCCCCC)c(CC=C)c2)c1.[Br-].[Br-] | 2

system: Bacillus subtilis; test: Antibacterial activity against Bacillus subtilis assessed as inhibition of visible growth incubated for 16 to 18 hrs by CLSI method; type: functional; conditions: time 16-18 hrs, read-out: MIC100

Row | Compound | MIC [µg/mL]
19 | C=CCc1ccc(OCC[N+](C)(C)CC(=O)NCC)c(-c2ccc(OCC[N+](C)(C)CC(=O)NCC)c(CC=C)c2)c1.[Br-].[Br-] | 4
20 | C=CCc1ccc(OCCCC[N+](C)(C)CC(=O)NCCCCCC)c(-c2ccc(OCCCC[N+](C)(C)CC(=O)NCCCCCC)c(CC=C)c2)c1.[Br-].[Br-] | 4

system: Staphylococcus aureus; test: Antibacterial activity against methicillin-resistant Staphylococcus aureus clinical isolate M-14 assessed as inhibition of visible growth incubated for 16 to 18 hrs by CLSI method; type: functional; conditions: time 16-18 hrs, read-out: MIC100

Row | Compound | MIC [µg/mL]
21 | C=CCc1ccc(OCC[N+](C)(C)CC(=O)NCC)c(-c2ccc(OCC[N+](C)(C)CC(=O)NCC)c(CC=C)c2)c1.[Br-].[Br-] | 4
22 | C=CCc1ccc(OCCCC[N+](C)(C)CC(=O)NCCCCCC)c(-c2ccc(OCCCC[N+](C)(C)CC(=O)NCCCCCC)c(CC=C)c2)c1.[Br-].[Br-] | 8

system: Escherichia coli; test: Antibacterial activity against Escherichia coli ATCC25922 assessed as inhibition of visible growth incubated for 16 to 18 hrs by CLSI method; type: functional; conditions: time 16-18 hrs, read-out: MIC100

Row | Compound | MIC [µg/mL]
23 | C=CCc1ccc(OCC[N+](C)(C)CC(=O)NCC)c(-c2ccc(OCC[N+](C)(C)CC(=O)NCC)c(CC=C)c2)c1.[Br-].[Br-] | 32
24 | C=CCc1ccc(OCCCC[N+](C)(C)CC(=O)NCCCCCC)c(-c2ccc(OCCCC[N+](C)(C)CC(=O)NCCCCCC)c(CC=C)c2)c1.[Br-].[Br-] | 16

system: Staphylococcus aureus; test: Antibacterial activity against methicillin-resistant Staphylococcus aureus clinical isolate M-15 assessed as inhibition of visible growth incubated for 16 to 18 hrs by CLSI method; type: functional; conditions: time 16-18 hrs, read-out: MIC100

Row | Compound | MIC [µg/mL]
25 | C=CCc1ccc(OCC[N+](C)(C)CC(=O)NCC)c(-c2ccc(OCC[N+](C)(C)CC(=O)NCC)c(CC=C)c2)c1.[Br-].[Br-] | 4
26 | C=CCc1ccc(OCCCC[N+](C)(C)CC(=O)NCCCCCC)c(-c2ccc(OCCCC[N+](C)(C)CC(=O)NCCCCCC)c(CC=C)c2)c1.[Br-].[Br-] | 8

system: not listed separately; test: Selectivity index, HC50 for hemolytic activity in sheep RBC to MIC for antibacterial activity against Staphylococcus aureus ATCC29213; type: toxicity; conditions: sheep red blood cells (erythrocytes), read-out: Selectivity Index

Row | Compound | selectivity ratio
27 | C=CCc1ccc(OCC[N+](C)(C)CC(=O)NCC)c(-c2ccc(OCC[N+](C)(C)CC(=O)NCC)c(CC=C)c2)c1.[Br-].[Br-] | 79.9
28 | C=CCc1ccc(OCCCC[N+](C)(C)CC(=O)NCCCCCC)c(-c2ccc(OCCCC[N+](C)(C)CC(=O)NCCCCCC)c(CC=C)c2)c1.[Br-].[Br-] | 143

system: Staphylococcus aureus; test: Antibacterial activity against Staphylococcus aureus ATCC29213 assessed as inhibition of visible growth incubated for 16 to 18 hrs by CLSI method; type: functional; conditions: time 16-18 hrs, read-out: MIC100

Row | Compound | MIC [µg/mL]
29 | C=CCc1ccc(OCC[N+](C)(C)CC(=O)NCC)c(-c2ccc(OCC[N+](C)(C)CC(=O)NCC)c(CC=C)c2)c1.[Br-].[Br-] | 8
30 | C=CCc1ccc(OCCCC[N+](C)(C)CC(=O)NCCCCCC)c(-c2ccc(OCCCC[N+](C)(C)CC(=O)NCCCCCC)c(CC=C)c2)c1.[Br-].[Br-] | 4

system: Staphylococcus aureus; test: Antibacterial activity against methicillin-resistant Staphylococcus aureus clinical isolate M-12 assessed as inhibition of visible growth incubated for 16 to 18 hrs by CLSI method; type: functional; conditions: time 16-18 hrs, read-out: MIC100

Row | Compound | MIC [µg/mL]
31 | C=CCc1ccc(OCC[N+](C)(C)CC(=O)NCC)c(-c2ccc(OCC[N+](C)(C)CC(=O)NCC)c(CC=C)c2)c1.[Br-].[Br-] | 8
32 | C=CCc1ccc(OCCCC[N+](C)(C)CC(=O)NCCCCCC)c(-c2ccc(OCCCC[N+](C)(C)CC(=O)NCCCCCC)c(CC=C)c2)c1.[Br-].[Br-] | 2

system: Enterococcus faecalis; test: Antibacterial activity against Enterococcus faecalis ATCC29212 assessed as inhibition of visible growth incubated for 16 to 18 hrs by CLSI method; type: functional; conditions: time 16-18 hrs, read-out: MIC100

Row | Compound | MIC [µg/mL]
33 | C=CCc1ccc(OCC[N+](C)(C)CC(=O)NCC)c(-c2ccc(OCC[N+](C)(C)CC(=O)NCC)c(CC=C)c2)c1.[Br-].[Br-] | 8
34 | C=CCc1ccc(OCCCC[N+](C)(C)CC(=O)NCCCCCC)c(-c2ccc(OCCCC[N+](C)(C)CC(=O)NCCCCCC)c(CC=C)c2)c1.[Br-].[Br-] | 2

system: Staphylococcus aureus; test: Antibacterial activity against methicillin-resistant Staphylococcus aureus clinical isolate M-13 assessed as inhibition of visible growth incubated for 16 to 18 hrs by CLSI method; type: functional; conditions: time 16-18 hrs, read-out: MIC100

Row | Compound | MIC [µg/mL]
35 | C=CCc1ccc(OCC[N+](C)(C)CC(=O)NCC)c(-c2ccc(OCC[N+](C)(C)CC(=O)NCC)c(CC=C)c2)c1.[Br-].[Br-] | 8
36 | C=CCc1ccc(OCCCC[N+](C)(C)CC(=O)NCCCCCC)c(-c2ccc(OCCCC[N+](C)(C)CC(=O)NCCCCCC)c(CC=C)c2)c1.[Br-].[Br-] | 2

system: Staphylococcus aureus; test: Antibacterial activity against methicillin-resistant Staphylococcus aureus clinical isolate M-20 assessed as inhibition of visible growth incubated for 16 to 18 hrs by CLSI method; type: functional; conditions: time 16-18 hrs, read-out: MIC100

Row | Compound | MIC [µg/mL]
37 | C=CCc1ccc(OCC[N+](C)(C)CC(=O)NCC)c(-c2ccc(OCC[N+](C)(C)CC(=O)NCC)c(CC=C)c2)c1.[Br-].[Br-] | 4
38 | C=CCc1ccc(OCCCC[N+](C)(C)CC(=O)NCCCCCC)c(-c2ccc(OCCCC[N+](C)(C)CC(=O)NCCCCCC)c(CC=C)c2)c1.[Br-].[Br-] | 4

system: Stenotrophomonas maltophilia; test: Antibacterial activity against Stenotrophomonas maltophilia assessed as inhibition of visible growth incubated for 16 to 18 hrs by CLSI method; type: functional; conditions: time 16-18 hrs, read-out: MIC100

Row | Compound | MIC [µg/mL]
39 | C=CCc1ccc(OCC[N+](C)(C)CC(=O)NCC)c(-c2ccc(OCC[N+](C)(C)CC(=O)NCC)c(CC=C)c2)c1.[Br-].[Br-] | 32
40 | C=CCc1ccc(OCCCC[N+](C)(C)CC(=O)NCCCCCC)c(-c2ccc(OCCCC[N+](C)(C)CC(=O)NCCCCCC)c(CC=C)c2)c1.[Br-].[Br-] | 8
